# What was measured:
# [1] = test system: murine lymphocytes (sheep red blood cells as antigen); test: Antigen-specific adjuvanticity: direct anti-SRBC plaque forming cells, murine system; type: cell-based, mouse; settings: for Average 1 Log Plaque Values: Table 9, murine, * = single study
# Excerpt: ^1 Adjuvanticities against sheep red blood cells [SRBC] measured in
# direct plaqueforming cells per culture of lymphocytes from the mouse
# strains shown. Details of the procedure are provided in the Materials and
# Methods Section. Standard errors from the enumerated mean values are show
# A large number of comparisons of adjuvanticity using human and murine lymphocytes as the source of leukocytes have been carried out using compounds of the present invention, as well as with new compounds excluded from the present invention. […] Interstudy comparisons are however useful for showing trends and large differences. Tables 5, 6 and 7, hereinafter, provide exemplary data from such studies in which only the activity at the peak concentration is shown for each compound and the results for the controls are omitted.
# Lymphocyte cultures. The serum-containing culture medium water prepared to contain the following per 100 milliliters: 91.9 milliliters RPMI 1640 (Flow Laboratories, Inc., Rockville, Md.), 0.1 milliliters of 100×glutamine, 1.0 milliliter of 100×sodium pyruvate, 1 0 milliliter of 50×nonessential amino acids, 1.0 milliliter of water containing 10^4 units of penicillin G and 10^4 micrograms of streptomycin, and 5.0 milliliters of a supportive lot of fetal calf serum (FCS). These ingredients were admixed to apparent homogeneity. Spleen cell suspensions and populations enriched for splenic B cells were prepared as described in Goodman et al., J. Immunol., 121:1905 (1978).
# For evaluation of the primary humoral immune response to sheep erythrocytes (SRBC), 5×10^6 to 10^7 murine spleen cells were cultured in 1.0 milliliter of 5% FCS-containing medium for 4 or 5 days in the presence and absence of immunogen. Cells were incubated in culture trays (Costar, Cambridge, Mass.) at 37° C. in a humidified atmosphere of 10% CO2 in air using tissue culture boxes (CBS Scientific, Del Mar, Calif.) that were rocked at a frequency of 7 cycles per minute. Pooled SRBC are available from the Colorado Serum Co., Denver Colo.
# (§1) Assay of plaque forming cells (PFC). PFC secreting antibodies against SRBC were evaluated after 4 or 5 days of culture using a modification of the hemolytic plaque assay of Jerne and Nordin, Science, 140:405 (1963). The cells were brought up in complete medium before plaquing; they were plaqued in standard low Mr agarose (Bio-Rad Laboratories, Richmond Calif.), and were incubated in SRBC-absorbed guinea pig complement for one hour after a 1.5 hour incubation without complement.
# [2] = test system: human peripheral blood lymphocytes (sheep red blood cells as antigen); test: Antigen-specific adjuvanticity: direct anti-SRBC plaque forming cells, human system; type: cell-based
# Protocol: ^1 Studies were carried in a manner similar to those of Table 1,
# except that a human lymphocyte preparation was used.
# The results shown in Table 7, below, were obtained similarly to those discussed above, but using human lymphocytes. Some of those studies utilized lymphocytes from more than one individual, and are therefore reported with multiple entries.
# Human peripheral blood lymphocytes (PBL) were prepared from normal heparinized venous blood by Ficoll-diatrizoate density gradient centrifugation. PBL were depleted of suppressor T cells bearing the histamine type 2 receptor by adhering them to the surfaces of histamine-rabbit serum albumin-coated plastic petri dishes (Cell-ect No. 2 kit; Seragen, Boston, Mass.) and by recovering the nonadherent cells by panning as described by Wysocki and Sato, Proc. Natl. Acad. Sci. USA, 75:2844 (1978) and modified by Cavagnaro and Osband, Biotechniques, January/February:30 (1983).
# The tissue culture medium employed in these studies for human lymphocytes was prepared as follows: One hundred milliliters (ml) contained 87.9 ml RPMI 1640 (Flow Laboratories, Rockville, Md.), 0.1 ml 100×glutamine,1.0 ml of 1.0 M HEPES buffer (Microbilogical Associates, Betheseda, Md.), 1.0 ml of water containing 10^4 U of penicillin G and 10^4 micrograms of streptomycin, and 10 ml of fresh autologous heat-inactivatedplasma. For evaluation of the primary humoral immune response to SRBC, lymphoid cells prepared as above were cultured at a density of 2×10^6 /ml in a volume of 1.0 ml containing 5×10^6 SRBC as antigen (Colorado Serum Co., Denver, Colo.) together with IL-2 (a partially purified preparation of human IL-2 that was free of interferon-gamma activity was obtained from Electro-Nucleonics, Inc., Silver Spring, Md.) and the guanine nucleoside derivative.
# as §1
# [3] = test system: murine spleen cells; test: Mitogenicity: [3H]TdR uptake, murine system; type: cell-based, mouse; settings: Table 2
# Excerpt: ^1 Mitogenicity measured by the uptake of [^3 H]TdR
# (tritiumlabeled thymidine deoxyribonucleoside) as determined by measuring
# counts per minute (cpm) per cell culture using the conditions discussed i
# the Materials and Methods Section.
# [4] = Table 5, murine system, at peak concentration
# [5] = Table 7, later studies, single preparation
# [6] = Table 6, murine system, at peak concentration
smiles,measurement,setting,value
"C=CCn1c(=S)n([C@@H]2O[C@H](COC(C)=O)[C@H]3OC(C)(C)O[C@H]32)c2nc(N)[nH]c(=O)c21 [compound 23287, 5'-Acetyl-7-(2-propenyl)-2',3'-O-isopropylidene-8-thioxoguanosine]",Peak Direct anti-SRBC PFC/Culture,"[1]; Table 6, first study (note 4)",1650 ± 63 PFC/Culture
same,Peak Direct anti-SRBC PFC/Culture,"[1]; Table 6, second study (note 4)",1675 ± 298 PFC/Culture
same,"adjuvanticity, in words",[1]; murine system,about twice that exhibited by 8-bromoguanosine (8BrGuo)
"C=CCn1c(=S)n([C@@H]2O[C@H](COC(=O)c3ccccc3)[C@H]3OC(C)(C)O[C@H]32)c2nc(NC(=O)c3ccccc3)[nH]c(=O)c21 [compound 23350, 7-(2-Propenyl)-2-N,5'-O-dibenzoyl-2',3'-O-isopropylidene-8-thioxoguanosine hemihydrate]",Peak Direct anti-SRBC PFC/Culture,"[1]; Table 6, study c",45 ± 8 PFC/Culture
same,"adjuvanticity, in words",[1]; murine system,substantially inactive at the concentrations utilized
"CCCCCCn1c(=O)n([C@@H]2O[C@H](CO)[C@@H](O)[C@H]2O)c2nc(N)[nH]c(=O)c21 [compound 23924, 7-Hexyl-8-oxoguanosine]",Direct Anti-SRBC PFC/Culture,"[1]; Table 8, 1 × 10^-5 M",243 PFC/Culture
"C=CCn1c(=[Se])n([C@@H]2O[C@H](CO)[C@@H](O)[C@H]2O)c2nc(N)[nH]c(=O)c21 [compound 23369, 7-(2-Propenyl)-8-selenoxoguanosine]",Peak Direct anti-SRBC PFC/Culture,[1]; [4],2425 ± 229 PFC/Culture
same,Peak Direct anti-SRBC PFC/Culture,[2]; [5],2204 ± 370 PFC/Culture
"CCCn1c(=O)n([C@@H]2O[C@H](CO)[C@@H](O)[C@H]2O)c2nc(N)[nH]c(=O)c21 [compound 24069, 7-Propyl-8-oxoguanosine]",Direct Anti-SRBC PFC/Culture,"[1]; Table 8, 1 × 10^-5 M",1306 PFC/Culture
"Nc1nc2c(nc(SCC=Cc3ccccc3)n2[C@@H]2O[C@H](CO)[C@@H](O)[C@H]2O)c(=O)[nH]1 [compound 22359, 8-(Cinnamylmercapto)guanosine]",Direct Anti-SRBC PFC/Culture,"[1]; Table 1, C57BL/6J, 3 × 10^-4 M",2620 ± 100 PFC/Culture
same,Direct Anti-SRBC PFC/Culture,"[1]; Table 1, C57BL/6J, 10^-3 M",3110 ± 350 PFC/Culture
same,Direct Anti-SRBC PFC/Culture,"[1]; Table 1, CBA/CaJ, 3 × 10^-4 M",157 ± 7 PFC/Culture
same,Direct Anti-SRBC PFC/Culture,"[1]; Table 1, CBA/CaJ, 10^-3 M",653 ± 52 PFC/Culture
same,Direct Anti-SRBC PFC/Culture,"[1]; Table 1, CBA/CaJ, 10^-4 M",123 ± 21 PFC/Culture
same,[3H] TdR Uptake,[3]; 3 × 10^-4 M,1300 ± 80 cpm/culture
same,[3H] TdR Uptake,[3]; 10^-3 M,1700 ± 280 cpm/culture
same,[3H] TdR Uptake,[3]; 10^-4 M,1600 ± 90 cpm/culture
"C=CCn1c(=S)n(C2OC(COC(=O)c3ccccc3)C3OC(C)(C)OC32)c2nc(N)nc(OC(=O)c3ccccc3)c21 (stereo not shown) [compound 23314, 7-(2-Propenyl)-6,5'-dibenzoyl-2',3'-O-isopropylidene-8-thioxoguanosine]",Peak Concentration,"[1]; Table 6, murine system",10^-5 moles per liter
same,Peak Direct anti-SRBC PFC/Culture,"[1]; Table 6, study b",243 ± 19 PFC/Culture
"CCCCCCCCCCn1c(=O)n([C@@H]2O[C@H](CO)[C@@H](O)[C@H]2O)c2nc(N)[nH]c(=O)c21 [compound 23894, 7-Decyl-8-oxoguanosine]",Peak Direct anti-SRBC PFC/Culture,[1]; [4],90 ± 15 PFC/Culture
"CC=CCn1c(=O)n([C@@H]2O[C@H](CO)[C@@H](O)[C@H]2O)c2nc(N)[nH]c(=O)c21 [compound 23679, 7-(2-Butenyl)-8-oxoguanosine]",Direct Anti-SRBC PFC/Culture,"[1]; Table 8, 1 × 10^-5 M",612 PFC/Culture
same,Average 1 Log Plaque Values,[1],"52,332 per micromole"
same,Peak Direct anti-SRBC PFC/Culture,[2]; [5],3129 ± 252 PFC/Culture
"CC=CCSc1nc2c(=O)[nH]c(N)nc2n1[C@@H]1O[C@H](CO)[C@@H](O)[C@H]1O [compound 22435, 8-(2-Butenylmercapto)guanosine]",Direct Anti-SRBC PFC/Culture,"[1]; Table 1, C57BL/6J, 3 × 10^-4 M",9130 ± 1110 PFC/Culture
same,Direct Anti-SRBC PFC/Culture,"[1]; Table 1, C57BL/6J, 10^-3 M","12,080 ± 470 PFC/Culture"
same,Direct Anti-SRBC PFC/Culture,"[1]; Table 1, CBA/CaJ, 3 × 10^-4 M",582 ± 52 PFC/Culture
same,Direct Anti-SRBC PFC/Culture,"[1]; Table 1, CBA/CaJ, 10^-3 M",607 ± 57 PFC/Culture
same,Direct Anti-SRBC PFC/Culture,"[1]; Table 1, CBA/CaJ, 10^-4 M",247 ± 38 PFC/Culture
same,"adjuvanticity, in words",[1]; murine system,"greater than that of the longer 8-cinnamyl derivative (22359), but less than that of the 8-mercapto compound (8MGuo)"
same,[3H] TdR Uptake,[3]; 3 × 10^-4 M,8800 ± 200 cpm/culture
same,[3H] TdR Uptake,[3]; 10^-3 M,"11,200 ± 202 cpm/culture"
same,[3H] TdR Uptake,[3]; 10^-4 M,4500 ± 120 cpm/culture
"Nc1nc2c(c(=O)[nH]1)n(CC=Cc1ccccc1)c(=O)n2[C@@H]1O[C@H](CO)[C@@H](O)[C@H]1O [compound 22827, 7-[(3-Phenyl)-2-propenyl]-8-oxoguanosine]",Peak Direct anti-SRBC PFC/Culture,[1]; [4],1357 ± 226 PFC/Culture
same,"adjuvanticity higher / more active than comparison compound of U.S. Pat. No. 4,643,992","[1]; murine system (Table 5), vs 7m8oGuo or compounds of that patent",more than 100%
same,Peak Direct anti-SRBC PFC/Culture,[2]; [5],2577 ± 300 PFC/Culture
"Nc1nc2c(nc(Br)n2[C@@H]2O[C@H](CO)[C@@H](O)[C@H]2O)c(=O)[nH]1 [8BrGuo, 8-bromoguanosine, reference compound]",Peak Direct anti-SRBC PFC/Culture,[1]; [4],2450 ± 325 PFC/Culture
same,Peak Direct anti-SRBC PFC/Culture,"[1]; Table 6, first study (note 4)",1167 ± 68 PFC/Culture
same,Peak Direct anti-SRBC PFC/Culture,"[1]; Table 6, second study (note 4)",633 ± 96 PFC/Culture
"C=CCn1c(=S)n(C2OC(COC(=O)c3ccccc3)C3OC(C)(C)OC32)c2nc(N)[nH]c(=O)c21.O (stereo not shown) [compound 23351, 7-(2-Propenyl)-5'-benzoyl-2',3'-O-isopropylideneguanosine-8-thioxoguanosinequarterhydrate]",Peak Concentration,"[1]; Table 6, murine system",10^-4 moles per liter
same,Peak Direct anti-SRBC PFC/Culture,"[1]; Table 6, study a",1431 ± 134 PFC/Culture
same,"adjuvanticity, in words",[1]; murine system,A similar result was obtained
"Nc1nc2c(c(=O)[nH]1)n(Cc1ccccc1)c(=O)n2[C@@H]1O[C@H](CO)[C@@H](O)[C@H]1O [compound 24234, 7-Benzyl-8-oxoguanosine]",Peak Direct anti-SRBC PFC/Culture,[1]; [4],2004 PFC/Culture
same,Average 1 Log Plaque Values,[1],"110,777 ± 42,823 per micromole"
"C=CCn1c(=S)n([C@@H]2O[C@H](CO)[C@H]3OC(C)(C)O[C@H]32)c2nc(N)[nH]c(=O)c21 [compound 23083, 7-(2-Propenyl)-8-thioxo-2',3'-O-isopropylidineguanosine hemihydrate]",Peak Direct anti-SRBC PFC/Culture,[1]; [6],2150 ± 250 PFC/Culture
same,"adjuvanticity, in words",[1]; murine system,"activity substantially identical to that of 7a8oGuo, albeit at about one-half log higher concentration"
"C=CCn1c(=S)n([C@@H]2O[C@H](COC(C)=O)[C@@H](OC(C)=O)[C@H]2OC(C)=O)c2nc(N)[nH]c(=O)c21 [compound 22360, 7-(2-Propenyl)-8-thioxo-2',3',5'-triacetylguanosine]",Peak Direct anti-SRBC PFC/Culture,[1]; [6],743 ± 48 PFC/Culture
same,Direct Anti-SRBC PFC/Culture,"[1]; Table 8, 1 × 10^-5 M",1176 PFC/Culture
same,Average 1 Log Plaque Values,[1],"53,695 ± 28,444 per micromole"
same,Peak Direct anti-SRBC PFC/Culture,"[2]; Table 7, second group, person a",925 PFC/Culture
same,Peak Direct anti-SRBC PFC/Culture,"[2]; Table 7, second group, person b",6008 PFC/Culture
same,Peak Direct anti-SRBC PFC/Culture,"[2]; Table 7, second group, person c",5050 PFC/Culture
same,Average 1 Log Plaque Values,"[2]; Table 9, human, * = single study","38,508 ± 26,802 per micromole"

# Reference: US5011828A, “Immunostimulating guanine derivatives, compositions and methods” (priority 1988, dated 1991)
